From PubChem BioAssay (NCI)
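Grown in 96-well plates, cells were treated for 48 hours with each compound at five concentrations. Insufficient inhibition: endpoint recorded as highest concentration tested. TGI: concentration producing complete growth inhibition.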 Where a SMILES comes first, the peptide text is derived from it. [ ]: non-standard residue; d: D form. The star is where a group is joined. X28 = COC1=CC(=O)N(C(=O)[C@@H](O*)C(C)C)[C@H]1Cc1ccccc1; Bn2Val = CC(C)[C@@H](C(=O)*)N(Cc1ccccc1)Cc1ccccc1; NMeV = CN[C@H](C(=O)O)C(C)C; dNMeA = CN[C@H](C)C(=O)O

Tests used:
Assay in all cases: NCI tumour cell line growth inhibition, 48 h
T-47D breast = tested on: T-47D breast
ACHN renal = tested on: ACHN renal
MALME-3M melanoma = tested on: MALME-3M melanoma
NCI-H23 lung = tested on: NCI-H23 lung
DU-145 prostate = tested on: DU-145 prostate
HCC-2998 colon = tested on: HCC-2998 colon
UACC-62 melanoma = tested on: UACC-62 melanoma
RXF 393 renal = tested on: RXF 393 renal
HOP-92 NSCLC = tested on: HOP-92 NSCLC
U251 CNS = tested on: U251 CNS
HOP-62 NSCLC = tested on: HOP-62 NSCLC
SF-268 CNS = tested on: SF-268 CNS
SK-MEL-2 melanoma = tested on: SK-MEL-2 melanoma
SNB-19 CNS = tested on: SNB-19 CNS
HCT-15 colon = tested on: HCT-15 colon
A498 renal = tested on: A498 renal
MDA-MB-231 breast = tested on: MDA-MB-231 breast
CCRF-CEM leukemia = tested on: CCRF-CEM leukemia
MDA-MB-435 = tested on: MDA-MB-435
K-562 leukemia = tested on: K-562 leukemia
PC-3 prostate = tested on: PC-3 prostate
COLO 205 colon = tested on: COLO 205 colon
NCI-H226 lung = tested on: NCI-H226 lung
NCI-H460 lung = tested on: NCI-H460 lung
SN12C renal = tested on: SN12C renal
OVCAR-3 ovarian = tested on: OVCAR-3 ovarian
A549 NSCLC = tested on: A549 NSCLC
HT29 colon = tested on: HT29 colon
SK-MEL-28 melanoma = tested on: SK-MEL-28 melanoma
SF-539 CNS = tested on: SF-539 CNS
SW-620 colon = tested on: SW-620 colon
MCF7 breast = tested on: MCF7 breast
786-0 renal = tested on: 786-0 renal
M14 melanoma = tested on: M14 melanoma
LOX IMVI melanoma = tested on: LOX IMVI melanoma
SK-MEL-5 melanoma = tested on: SK-MEL-5 melanoma
HCT-116 colon = tested on: HCT-116 colon
SK-OV-3 ovarian = tested on: SK-OV-3 ovarian
TK-10 renal = tested on: TK-10 renal
UACC-257 melanoma = tested on: UACC-257 melanoma
HL-60(TB) leukemia = tested on: HL-60(TB) leukemia
MDA-N = tested on: MDA-N
OVCAR-4 ovarian = tested on: OVCAR-4 ovarian
SR leukemia = tested on: SR leukemia
HS 578T breast = tested on: HS 578T breast
RPMI-8226 leukemia = tested on: RPMI-8226 leukemia
OVCAR-5 ovarian = tested on: OVCAR-5 ovarian
KM12 colon = tested on: KM12 colon
IGROV1 ovarian = tested on: IGROV1 ovarian
UO-31 renal = tested on: UO-31 renal
SNB-75 CNS = tested on: SNB-75 CNS
BT-549 breast = tested on: BT-549 breast
NCI/ADR-RES ovarian = tested on: NCI/ADR-RES ovarian
CAKI-1 renal = tested on: CAKI-1 renal
EKVX NSCLC = tested on: EKVX NSCLC
NCI-H522 lung = tested on: NCI-H522 lung
OVCAR-8 ovarian = tested on: OVCAR-8 ovarian
SF-295 CNS = tested on: SF-295 CNS

**Q.** What does the source list for `Nc1nc(Nc2ccc(Cl)cc2)sc1C(=O)c1c[nH]c2ccccc12`?
**A.** TGI (T-47D breast): 92.3 µM; TGI (ACHN renal): 36.2 µM; TGI (MALME-3M melanoma): 31.2 µM; TGI (NCI-H23 lung): 27.8 µM; TGI (DU-145 prostate): 38.9 µM; TGI (HCC-2998 colon): 24.1 µM; TGI (UACC-62 melanoma): 28 µM; TGI (RXF 393 renal): 44.1 µM; TGI (HOP-92 NSCLC): 36.2 µM; TGI (U251 CNS): 25.1 µM; TGI (HOP-62 NSCLC): 46.9 µM; TGI (SF-268 CNS): 60 µM; TGI (SK-MEL-2 melanoma): 28.4 µM; TGI (SNB-19 CNS): 38 µM; TGI (HCT-15 colon): 15.2 µM; TGI (A498 renal): 23.3 µM; TGI (MDA-MB-231 breast): 35 µM; TGI (CCRF-CEM leukemia): > 100 µM; TGI (MDA-MB-435): 47.5 µM; TGI (K-562 leukemia): > 100 µM; TGI (PC-3 prostate): 27.9 µM; TGI (COLO 205 colon): 18 µM; TGI (NCI-H226 lung): 46.1 µM; TGI (NCI-H460 lung): 21.3 µM; TGI (SN12C renal): 29 µM; TGI (OVCAR-3 ovarian): 36 µM; TGI (A549 NSCLC): 29.5 µM; TGI (HT29 colon): 20 µM; TGI (SK-MEL-28 melanoma): 39.8 µM; TGI (SF-539 CNS): 31.6 µM; TGI (SW-620 colon): > 100 µM; TGI (MCF7 breast): 31 µM; TGI (786-0 renal): 15.6 µM; TGI (M14 melanoma): 23.5 µM; TGI (LOX IMVI melanoma): 43.8 µM; TGI (SK-MEL-5 melanoma): 24.3 µM; TGI (HCT-116 colon): 23.1 µM; TGI (SK-OV-3 ovarian): 46.4 µM; TGI (TK-10 renal): 31.8 µM; TGI (UACC-257 melanoma): 19.7 µM; TGI (HL-60(TB) leukemia): 82.8 µM; TGI (MDA-N): 25.3 µM; TGI (OVCAR-4 ovarian): 51.7 µM; TGI (SR leukemia): > 100 µM; TGI (HS 578T breast): 71.3 µM; TGI (RPMI-8226 leukemia): > 100 µM; TGI (OVCAR-5 ovarian): 46.2 µM; TGI (KM12 colon): 51.1 µM; TGI (IGROV1 ovarian): 37.1 µM; TGI (UO-31 renal): 34.2 µM; TGI (SNB-75 CNS): 24.3 µM; TGI (BT-549 breast): 34 µM; TGI (NCI/ADR-RES ovarian): 33.1 µM

**Q.** Which results are given for `COC1=CC(=O)N(C(=O)[C@@H](OC(=O)[C@@H](C)N(C)C(=O)[C@@H]2CCCN2C(=O)[C@H](C(C)C)N(C)C(=O)[C@@H](NC(=O)[C@H](C(C)C)N(Cc2ccccc2)Cc2ccccc2)C(C)C)C(C)C)[C@H]1Cc1ccccc1` (Bn2Val-V[NMeV]P[dNMeA]-X28)?
**A.** TGI (T-47D breast): > 100 µM; TGI (ACHN renal): > 100 µM; TGI (CAKI-1 renal): > 100 µM; TGI (MALME-3M melanoma): > 100 µM; TGI (DU-145 prostate): > 100 µM; TGI (HCC-2998 colon): > 100 µM; TGI (UACC-62 melanoma): > 100 µM; TGI (RXF 393 renal): > 100 µM; TGI (HOP-92 NSCLC): > 100 µM; TGI (U251 CNS): > 100 µM; TGI (EKVX NSCLC): > 100 µM; TGI (HOP-62 NSCLC): > 100 µM; TGI (SF-268 CNS): > 100 µM; TGI (SK-MEL-2 melanoma): > 100 µM; TGI (SNB-19 CNS): > 100 µM; TGI (HCT-15 colon): > 100 µM; TGI (A498 renal): > 100 µM; TGI (MDA-MB-231 breast): > 77.6 µM; TGI (CCRF-CEM leukemia): > 100 µM; TGI (MDA-MB-435): > 100 µM; TGI (K-562 leukemia): > 100 µM; TGI (PC-3 prostate): > 100 µM; TGI (COLO 205 colon): > 100 µM; TGI (NCI-H226 lung): > 100 µM; TGI (NCI-H460 lung): > 100 µM; TGI (SN12C renal): > 100 µM; TGI (OVCAR-3 ovarian): > 100 µM; TGI (A549 NSCLC): > 100 µM; TGI (HT29 colon): > 100 µM; TGI (SK-MEL-28 melanoma): > 100 µM; TGI (SF-539 CNS): > 100 µM; TGI (SW-620 colon): > 100 µM; TGI (MCF7 breast): > 100 µM; TGI (786-0 renal): > 100 µM; TGI (M14 melanoma): > 100 µM; TGI (LOX IMVI melanoma): > 100 µM; TGI (SK-MEL-5 melanoma): > 100 µM; TGI (HCT-116 colon): > 100 µM; TGI (SK-OV-3 ovarian): > 100 µM; TGI (NCI-H522 lung): > 100 µM; TGI (TK-10 renal): > 100 µM; TGI (UACC-257 melanoma): > 100 µM; TGI (OVCAR-8 ovarian): > 100 µM; TGI (MDA-N): > 100 µM; TGI (OVCAR-4 ovarian): > 100 µM; TGI (SR leukemia): > 100 µM; TGI (HS 578T breast): > 100 µM; TGI (RPMI-8226 leukemia): > 100 µM; TGI (OVCAR-5 ovarian): > 100 µM; TGI (KM12 colon): > 100 µM; TGI (SF-295 CNS): > 100 µM; TGI (IGROV1 ovarian): > 100 µM; TGI (UO-31 renal): 22.3 µM; TGI (SNB-75 CNS): > 54.8 µM; TGI (BT-549 breast): > 100 µM; TGI (NCI/ADR-RES ovarian): > 100 µM
